The source of these data is the supplement of paper PMC10307832.

What all share (assay): relative viability (nuclei count vs DMSO), 5 days (fraction); higher = more cells survive
Compound in experiment [1]: Cc1ccc2nc(NCCN)c3ncc(C)n3c2c1 + Cc1cc(Nc2cc(N3CCN(C)CC3)nc(Sc3ccc(NC(=O)C4CC4)cc3)n2)n[nH]1 [Tozasertib] (partner 0.1 µM)
Put shortly:
(§1)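 Values are medians from duplicate plates. Each reflects relative viability, defined as the nuclei count of treated wells over that of vehicle wells. Lung cancer cell lines in 1536-well plates were pin-tool dosed one day after seeding with one drug alone or with a fixed anchor-drug dose plus five library-drug doses (not always all listed) in √10 steps, then fixed, stained and imaged at 4× after 5 days.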

Compound in the experiment “Salubrinal + Bortezomib”: O=C(/C=C/c1ccccc1)NC(NC(=S)Nc1cccc2cccnc12)C(Cl)(Cl)Cl [Salubrinal] + CC(C)C[C@H](NC(=O)[C@H](Cc1ccccc1)NC(=O)c1cnccn1)B(O)O [Bortezomib] (partner 0.002 µM)
Put shortly:
as §1

Compound in the experiment “Salubrinal + Foretinib”: O=C(/C=C/c1ccccc1)NC(NC(=S)Nc1cccc2cccnc12)C(Cl)(Cl)Cl [Salubrinal] + COc1cc2c(Oc3ccc(NC(=O)C4(C(=O)Nc5ccc(F)cc5)CC4)cc3F)ccnc2cc1OCCCN1CCOCC1 [Foretinib] (partner 0.25 µM)
The essentials: as §1

Compound in the experiment “Salubrinal + Linsitinib”: O=C(/C=C/c1ccccc1)NC(NC(=S)Nc1cccc2cccnc12)C(Cl)(Cl)Cl [Salubrinal] + C[C@]1(O)C[C@@H](c2nc(-c3ccc4ccc(-c5ccccc5)nc4c3)c3c(N)nccn32)C1 [Linsitinib] (partner 1 µM)
The essentials:
as §1

As to HARA, the relative viability stood at 0.77 in experiment [1] (first compound 0.04 µM); 0.156 in experiment [1] (first compound 0.1265 µM); 0.126 in experiment [1] (first compound 0.4 µM); 0.107 in experiment [1] (first compound 1.265 µM); 0.11 in experiment [1] (first compound 4 µM); 1.14 with Salubrinal + Bortezomib (first compound 0.08 µM). Also, the relative viability in the experiment with Salubrinal + Bortezomib (first compound 0.253 µM) was 1.01; with Salubrinal + Bortezomib (first compound 0.8 µM), 1.16; in the experiment with Salubrinal + Bortezomib (first compound 2.53 µM) it was 1.13; with Salubrinal + Bortezomib (first compound 8 µM), 1.06; in the experiment with Salubrinal + Foretinib (first compound 0.08 µM), 0.836; with Salubrinal + Foretinib (first compound 0.253 µM), 0.628. Besides, the relative viability with Salubrinal + Foretinib (first compound 0.8 µM) came out at 0.917; in the experiment with Salubrinal + Foretinib (first compound 2.53 µM), 1.08; with Salubrinal + Foretinib (first compound 8 µM), 0.69; in the experiment with Salubrinal + Linsitinib (first compound 0.08 µM), 1.09; with Salubrinal + Linsitinib (first compound 0.253 µM), 0.905; with Salubrinal + Linsitinib (first compound 0.8 µM), 0.936. Moreover, the values for the relative viability in the experiment with Salubrinal + Linsitinib (first compound 2.53 µM) and with Salubrinal + Linsitinib (first compound 8 µM) were 0.898 and 0.99, respectively.
HCC-15: the relative viability came out at 0.382 in experiment [1] (first compound 0.04 µM); 0.412 in experiment [1] (first compound 0.1265 µM); 0.439 in experiment [1] (first compound 0.4 µM); 0.345 in experiment [1] (first compound 1.265 µM); 0.247 in experiment [1] (first compound 4 µM); 1.13 with Salubrinal + Bortezomib (first compound 0.08 µM). Also, the relative viability turned out to be 0.804 with Salubrinal + Bortezomib (first compound 0.253 µM); 1.14 in the experiment with Salubrinal + Bortezomib (first compound 0.8 µM); 1.15 with Salubrinal + Bortezomib (first compound 2.53 µM); 0.997 in the experiment with Salubrinal + Bortezomib (first compound 8 µM); 1.21 with Salubrinal + Foretinib (first compound 0.08 µM); 0.999 with Salubrinal + Foretinib (first compound 0.253 µM). The relative viability worked out at 1.07 with Salubrinal + Foretinib (first compound 0.8 µM); 1.08 with Salubrinal + Foretinib (first compound 2.53 µM); 1.06 with Salubrinal + Foretinib (first compound 8 µM); 0.946 in the experiment with Salubrinal + Linsitinib (first compound 0.08 µM); 0.801 with Salubrinal + Linsitinib (first compound 0.253 µM); 0.952 with Salubrinal + Linsitinib (first compound 0.8 µM). Moreover, the relative viability in the experiment with Salubrinal + Linsitinib (first compound 2.53 µM) worked out at 0.964; with Salubrinal + Linsitinib (first compound 8 µM) it was 0.87.
Consider LCLC-97TM1, for which the relative viability in experiment [1] (first compound 0.04 µM) was 0.201; in experiment [1] (first compound 0.1265 µM) it was 0.215; in experiment [1] (first compound 0.4 µM), 0.177; in experiment [1] (first compound 1.265 µM) it was 0.218; in experiment [1] (first compound 4 µM), 0.187; with Salubrinal + Bortezomib (first compound 0.08 µM), 0.995. In addition, the relative viability with Salubrinal + Bortezomib (first compound 0.8 µM) stood at 1.22; in the experiment with Salubrinal + Bortezomib (first compound 2.53 µM) it was 0.626; in the experiment with Salubrinal + Bortezomib (first compound 8 µM), 0.637; with Salubrinal + Foretinib (first compound 0.08 µM), 0.908; with Salubrinal + Foretinib (first compound 0.253 µM), 0.885; with Salubrinal + Foretinib (first compound 0.8 µM) it was 0.862. Also, the relative viability turned out to be 0.901 in the experiment with Salubrinal + Foretinib (first compound 2.53 µM); 1.03 with Salubrinal + Foretinib (first compound 8 µM); 0.222 in the experiment with Salubrinal + Linsitinib (first compound 0.08 µM); 0.214 with Salubrinal + Linsitinib (first compound 0.253 µM); 0.221 with Salubrinal + Linsitinib (first compound 0.8 µM); 0.243 with Salubrinal + Linsitinib (first compound 8 µM).
RERF-LC-KJ: the relative viability is 0.512 in experiment [1] (first compound 0.04 µM); 0.506 in experiment [1] (first compound 0.1265 µM); 0.561 in experiment [1] (first compound 0.4 µM); 0.456 in experiment [1] (first compound 1.265 µM); 0.32 in experiment [1] (first compound 4 µM); 1.29 with Salubrinal + Bortezomib (first compound 0.08 µM). The relative viability with Salubrinal + Bortezomib (first compound 0.253 µM) came out at 0.984; with Salubrinal + Bortezomib (first compound 0.8 µM), 1.24; in the experiment with Salubrinal + Bortezomib (first compound 2.53 µM) it was 1.03; with Salubrinal + Bortezomib (first compound 8 µM), 1.15; in the experiment with Salubrinal + Foretinib (first compound 0.08 µM) it was 0.959; with Salubrinal + Foretinib (first compound 0.253 µM), 0.699. The relative viability with Salubrinal + Foretinib (first compound 0.8 µM) stood at 0.941; with Salubrinal + Foretinib (first compound 2.53 µM), 0.921; with Salubrinal + Foretinib (first compound 8 µM), 0.706; with Salubrinal + Linsitinib (first compound 0.08 µM) it was 0.896; with Salubrinal + Linsitinib (first compound 0.253 µM) it was 0.806; in the experiment with Salubrinal + Linsitinib (first compound 0.8 µM), 0.931. Also, the results for the relative viability with Salubrinal + Linsitinib (first compound 2.53 µM) and with Salubrinal + Linsitinib (first compound 8 µM) were 0.791 and 0.846, respectively.
